The conditions of data set [1]: for Stabilization of chlorine dioxide (in words): excipients of Table 1 in brimonidine composition; for Stabilized Chlorine Dioxide Concentration, 0 Days / Stabilized Chlorine Dioxide Concentration, 7 Days / Stabilized Chlorine Dioxide Concentration, 14 Days: ingredient added at stated ppm to proprietary brimonidine composition.
Description: Each of the excipients was added, in the amounts shown, to a proprietary composition comprising brimonidine as a therapeutically active agent.
Data set [2] in a line: Effect of citrate on bimatoprost and Purite stability in the composition of Table 4 at 50° C. Type of data set: physicochemical. Particulars: compositions D (citric acid 0.014%) vs E, 50° C., 3, 6 and 10 weeks, FIGS. 1 and 2. As for the experimental part:
Compositions D and E were prepared according to Table 4 by a procedure similar to that described in Example 2. […] The samples were stored at 50° C. and the concentrations of bimatoprost (FIG. 1) and Purite® (FIG. 2) were determined at 3, 6 and 10 weeks.

The format of data set [3] is physicochemical. How it is done:
A composition, prepared according to Table 5, was entirely manufactured in a single batch vessel and was prepared as follows. The ingredients are added into purified water with mixing in the following order: sodium phosphate dibasic heptahydrate, citric acid monohydrate, sodium chloride, bimatoprost, and Purite®. Each ingredient was allowed to dissolve completely before the next ingredient was added. The pH was then measured and adjusted to 7.3, and purified water was added to bring the composition to final volume.

This is an account of results in patent publication US20150283240A1, “STABILIZED COMPOSITIONS COMPRISING A […] ACTIVE AGENT AND AN OXIDIZING PRESERVATIVE” (Allergan, Inc., priority 2014, published 2015).

As for `O=C([O-])C(=O)[O-].[Na+].[Na+]` [Sodium Oxalate], in data set [1], the “Stabilization of chlorine dioxide (in words)” value (from here on “Stabilization”) is listed as “ineffective”; the “Stabilized Chlorine Dioxide Concentration, 0 Days” value worked out at 39 ppm; the “Stabilized Chlorine Dioxide Concentration, 7 Days” value came to 38 ppm; the “Stabilized Chlorine Dioxide Concentration, 14 Days” value came out at 35 ppm.

As for `O=C([O-])/C(O)=C(\O)C(=O)[O-].[Na+].[Na+]` [Sodium Dihydroxyfurmarate], in data set [1], the “Stabilized Chlorine Dioxide Concentration, 0 Days” value is on record as 37 ppm; the “Stabilized Chlorine Dioxide Concentration, 7 Days” value came to 13 ppm; the “Stabilized Chlorine Dioxide Concentration, 14 Days” value is given as 0 ppm.

On to `O=C(O)CN(CCN(CC(=O)O)CC(=O)O)CC(=O)O` [EDTA], for which, in data set [1], the “Stabilization” value is given as “do not stabilize”; the “Stabilized Chlorine Dioxide Concentration, 0 Days” value is given as 44 ppm; the “Stabilized Chlorine Dioxide Concentration, 7 Days” value worked out at 2 ppm; the “Stabilized Chlorine Dioxide Concentration, 14 Days” value turned out to be 0 ppm.

As to `CC(=O)C(=O)[O-].[Na+]` [Sodium Pyruvate], in data set [1], the “Stabilization” value was “ineffective”.

`CC(O)C(=O)[O-].[Na+]` (stereo not drawn) [Sodium Lactate]: in data set [1], the “Stabilized Chlorine Dioxide Concentration, 0 Days” value came to 45 ppm; the “Stabilized Chlorine Dioxide Concentration, 7 Days” value came out at 40 ppm; the “Stabilized Chlorine Dioxide Concentration, 14 Days” value is 37 ppm.

As for `O=C[O-].[Na+]` [Sodium Formate], in data set [1], the “Stabilized Chlorine Dioxide Concentration, 0 Days” value is 42 ppm; the “Stabilized Chlorine Dioxide Concentration, 7 Days” value amounted to 40 ppm; the “Stabilized Chlorine Dioxide Concentration, 14 Days” value is recorded as 36 ppm.

As for `O=C(O)CC(O)(CC(=O)O)C(=O)O` [citrate, citric acid], the “Effect of citrate on bimatoprost and Purite stability (in words)” value in data set [2] is “stabilizes both bimatoprost and Purite®”. Further, the “Storage stability for bimatoprost and Purite (in words)” value in data set [3] was “excellent storage stability”.

`NCCN` [Ethylene diamine]: the “Stabilization” value in data set [1] is given as “do not stabilize”.
